{"source": "paper PMC7083880", "about": "(Nature Communications, 2020)", "format_in_all_cases": "cell-based, human", "key": {"[1]": {"system": "endogenous TP53 gene with UGA nonsense mutation in Calu-6 cells", "assay": "p53 protein western blot, Calu-6 cells", "details": "24 h", "procedure": "After 24 h of treatment, proteins were extracted from the cells and the p53 protein was assessed by western blotting (Fig. 2a). After DMSO mock treatment, as anticipated, no p53 protein was detected, because of the presence of the PTC in p53 mRNA[33].\n(§1) The three leftmost lanes show twofold serial dilutions of untreated HeLa cell extract. The molecular weight is indicated to the left of each gel. b Schematic representation of the construct used to measure the function of p53. The construct carries a cDNA encoding the firefly luciferase under a promoter having two p53-responsive elements (underlined). […] The level of p21 mRNA is related to the amount of functional p53 protein synthesized in the cell. The results presented in panels b and c are representative of at least two independent experiments., p-values (p) were calculated using Student’s t-test. Source data are provided as a Source Data file.\nProteins were extracted from 2 × 10^6 cells in lysis buffer containing 5% SDS, 50 mM Tris–HCl pH 7, 20 mM EDTA, and a protease inhibitor cocktail (HALT Protease Inhibitor Cocktail, Pierce-Biotechnology, Rockford, IL, USA). Lysates were subjected to 30 pulses of sonication (Branson Digital Sonifier/amplitude 20%) before a 5 min centrifugation at 8000×g.\nThe equivalent of 2.5 × 10^5 cells was subjected to 10% SDS–PAGE before transfer of the proteins to a nitrocellulose membrane. […] Antibodies were then detected with Super Signal West Femto Maximum Sensitivity Substrate (Pierce-Biotechnology, Rockford, IL, USA). Quantifications were performed with QuantityOne software (Biorad). […]"}, "[2]": {"system": "wild-type TP53 in HeLa cells", "assay": "p53 function: luciferase under promoter with two p53-responsive elements, HeLa"}, "[3]": {"system": "p53 target gene p21 in Calu-6 cells", "assay": "p21 mRNA level by quantitative RT-PCR, Calu-6", "text": "as §1\n(§2) Although DAP clearly promoted the synthesis of full-length proteins from UGA-nonsense-mutation-containing mRNAs, it was necessary to ascertain that the readthrough protein was functional. […] The first involved measuring the transcriptional activity of the p53 readthrough protein in Calu-6 cells transfected with an expression vector carrying the cDNA encoding firefly luciferase under the control of a promoter with two p53-responsive elements (Fig. 2b)[33]. Upon DMSO treatment, only basal luciferase activity was detected, reflecting promoter leakage (Fig. 2c). […] The second assay used the p53 target gene p21 (ref. [44]).\nRNA was purified using RNazol (MRC) according to the manufacturer’s instructions. 1/5 of the RNA preparation was used for reverse-transcription (RT) PCR (RT-PCR) using Superscript II (Life Technologies) for 2 h at 42 °C in the presence of random hexamers. The resulting cDNAs were PCR amplified in the presence of dCTP(α^33P) (Perkin Elmer) with the following primers: GAPDH mRNA (sense: 5′-[…]-3′; antisense: 5′-[…]-3′), p53 mRNA (sense: 5′-[…]-3′; antisense: 5′-[…]-3′), p21 mRNA (sense: 5′-[…]-3′; antisense: 5′-[…]-3′). PCR products were quantified with Personal Molecular Imager and QuantityOne quantification software (Bio-Rad)."}, "[4]": {"system": "p53 readthrough protein in Calu-6 cells", "assay": "p53 function: luciferase under promoter with two p53-responsive elements, Calu-6", "text": "as §1, §2"}}}
{"smiles": "Nc1nc(N)c2[nH]cnc2n1", "note": "[DAP, 2,6-diaminopurine]", "values": [{"measurement": "Synthesis of p53 protein (western blot)", "setting": "[1]; Calu-6 (UGA)", "value": "dose-dependent synthesis of the p53 protein"}, {"measurement": "Lowest concentration at which p53 protein was detected", "setting": "[1]; Calu-6, western blot", "value": 1.56, "unit": "µM"}, {"measurement": "Luciferase activity, p53-responsive promoter construct (DMSO = 1)", "setting": "[2]; 6.25µM, FL922", "value": 0.8852}, {"measurement": "Luciferase activity, p53-responsive promoter construct (DMSO = 1)", "setting": "[2]; 6.25µM, FL932", "value": 0.9803}, {"measurement": "Luciferase activity, p53-responsive promoter construct (DMSO = 1)", "setting": "[2]; 6.25µM, FL934", "value": 0.8382}, {"measurement": "Luciferase activity, p53-responsive promoter construct (DMSO = 1)", "setting": "[2]; 6.25µM, average", "value": 0.9012}, {"measurement": "Luciferase activity, p53-responsive promoter construct (DMSO = 1)", "setting": "[2]; 25µM, FL922", "value": 0.7844}, {"measurement": "Luciferase activity, p53-responsive promoter construct (DMSO = 1)", "setting": "[2]; 25µM, FL932", "value": 0.8921}, {"measurement": "Luciferase activity, p53-responsive promoter construct (DMSO = 1)", "setting": "[2]; 25µM, FL934", "value": 1.092}, {"measurement": "Luciferase activity, p53-responsive promoter construct (DMSO = 1)", "setting": "[2]; 25µM, average", "value": 0.9228}, {"measurement": "Luciferase activity under p53-responsive promoter, in words", "setting": "[2]; wild-type TP53", "value": "failure of DAP to cause a luciferase activity increase"}, {"measurement": "Level of endogenous p21 mRNA, in words", "setting": "[3]", "value": "increase significantly"}, {"measurement": "Level of p21 mRNA (DMSO = 1)", "setting": "[3]; 6.25µM, average", "value": 1.751}, {"measurement": "Level of p21 mRNA (DMSO = 1)", "setting": "[3]; 6.25µM, experiment 1", "value": 2.112}, {"measurement": "Level of p21 mRNA (DMSO = 1)", "setting": "[3]; 6.25µM, experiment 2", "value": 1.8}, {"measurement": "Level of p21 mRNA (DMSO = 1)", "setting": "[3]; 25µM, average", "value": 2.148}, {"measurement": "Level of p21 mRNA (DMSO = 1)", "setting": "[3]; 25µM, experiment 1", "value": 1.8674}, {"measurement": "Level of p21 mRNA (DMSO = 1)", "setting": "[3]; 25µM, experiment 2", "value": 2.071}, {"measurement": "Level of p21 mRNA (DMSO = 1)", "setting": "[3]; 25µM, experiment 3", "value": 2.507}, {"measurement": "Luciferase activity under p53-responsive promoter, in words", "setting": "[4]", "value": "significantly increased"}, {"measurement": "Luciferase activity, p53-responsive promoter construct (DMSO = 1)", "setting": "[4]; 6.25µM, average", "value": 1.454}, {"measurement": "Luciferase activity, p53-responsive promoter construct (DMSO = 1)", "setting": "[4]; 6.25µM, experiment 1", "value": 1.606}, {"measurement": "Luciferase activity, p53-responsive promoter construct (DMSO = 1)", "setting": "[4]; 6.25µM, experiment 2", "value": 1.415}, {"measurement": "Luciferase activity, p53-responsive promoter construct (DMSO = 1)", "setting": "[4]; 6.25µM, experiment 3", "value": 1.341}, {"measurement": "Luciferase activity, p53-responsive promoter construct (DMSO = 1)", "setting": "[4]; 25µM, average", "value": 2.545}, {"measurement": "Luciferase activity, p53-responsive promoter construct (DMSO = 1)", "setting": "[4]; 25µM, experiment 1", "value": 2.235}, {"measurement": "Luciferase activity, p53-responsive promoter construct (DMSO = 1)", "setting": "[4]; 25µM, experiment 2", "value": 2.893}, {"measurement": "Luciferase activity, p53-responsive promoter construct (DMSO = 1)", "setting": "[4]; 25µM, experiment 3", "value": 2.507}]}
{"smiles": "CN[C@@H]1[C@@H](O)[C@@H](O[C@@H]2[C@@H](O)[C@H](O[C@H]3O[C@H]([C@@H](C)O)[C@@H](O)[C@H](O)[C@H]3N)[C@@H](N)C[C@H]2N)OC[C@]1(C)O", "note": "[G418, reference compound]", "values": [{"measurement": "p53 protein detection (western blot)", "setting": "[1]; 25 µM, Calu-6", "value": "barely detected"}, {"measurement": "Luciferase activity, p53-responsive promoter construct (DMSO = 1)", "setting": "[2]; 25µM, FL922", "value": 0.9453}, {"measurement": "Luciferase activity, p53-responsive promoter construct (DMSO = 1)", "setting": "[2]; 25µM, FL932", "value": 0.904}, {"measurement": "Luciferase activity, p53-responsive promoter construct (DMSO = 1)", "setting": "[2]; 25µM, FL934", "value": 1.071}, {"measurement": "Luciferase activity, p53-responsive promoter construct (DMSO = 1)", "setting": "[2]; 25µM, average", "value": 0.9735}, {"measurement": "Luciferase activity, p53-responsive promoter construct (DMSO = 1)", "setting": "[2]; 600µM, FL922", "value": 0.9542}, {"measurement": "Luciferase activity, p53-responsive promoter construct (DMSO = 1)", "setting": "[2]; 600µM, FL932", "value": 0.6225}, {"measurement": "Luciferase activity, p53-responsive promoter construct (DMSO = 1)", "setting": "[2]; 600µM, FL934", "value": 1.017}, {"measurement": "Luciferase activity, p53-responsive promoter construct (DMSO = 1)", "setting": "[2]; 600µM, average", "value": 0.8645}, {"measurement": "Level of p21 mRNA (DMSO = 1)", "setting": "[3]; 25µM, average", "value": 1.18}, {"measurement": "Level of p21 mRNA (DMSO = 1)", "setting": "[3]; 25µM, experiment 1", "value": 1.069}, {"measurement": "Level of p21 mRNA (DMSO = 1)", "setting": "[3]; 25µM, experiment 2", "value": 1.178}, {"measurement": "Level of p21 mRNA (DMSO = 1)", "setting": "[3]; 25µM, experiment 3", "value": 1.295}, {"measurement": "Level of p21 mRNA (DMSO = 1)", "setting": "[3]; 600µM, average", "value": 1.145}, {"measurement": "Level of p21 mRNA (DMSO = 1)", "setting": "[3]; 600µM, experiment 1", "value": 0.7456}, {"measurement": "Level of p21 mRNA (DMSO = 1)", "setting": "[3]; 600µM, experiment 2", "value": 1.569}, {"measurement": "Level of p21 mRNA (DMSO = 1)", "setting": "[3]; 600µM, experiment 3", "value": 1.121}, {"measurement": "Luciferase activity under p53-responsive promoter, in words", "setting": "[4]", "value": "remained at its background level"}, {"measurement": "Luciferase activity, p53-responsive promoter construct (DMSO = 1)", "setting": "[4]; 25µM, average", "value": 1.04}, {"measurement": "Luciferase activity, p53-responsive promoter construct (DMSO = 1)", "setting": "[4]; 25µM, experiment 1", "value": 1.048}, {"measurement": "Luciferase activity, p53-responsive promoter construct (DMSO = 1)", "setting": "[4]; 25µM, experiment 2", "value": 0.7766}, {"measurement": "Luciferase activity, p53-responsive promoter construct (DMSO = 1)", "setting": "[4]; 25µM, experiment 3", "value": 1.295}, {"measurement": "Luciferase activity, p53-responsive promoter construct (DMSO = 1)", "setting": "[4]; 600µM, average", "value": 1.017}, {"measurement": "Luciferase activity, p53-responsive promoter construct (DMSO = 1)", "setting": "[4]; 600µM, experiment 1", "value": 1.299}, {"measurement": "Luciferase activity, p53-responsive promoter construct (DMSO = 1)", "setting": "[4]; 600µM, experiment 2", "value": 0.6289}, {"measurement": "Luciferase activity, p53-responsive promoter construct (DMSO = 1)", "setting": "[4]; 600µM, experiment 3", "value": 1.121}]}
